# Data: the supplement of paper PMC4862054
# Legend:
# Settings in all cases: incubation time: 72 h
# BT-474 [1] = experiment: normalised viability (% of control), CellTiter-Blue; higher = more viable cells (100 = DMSO, 0 = benzethonium chloride kill control)
# Procedure, shortened: (§1)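 Compound dissolved in 5 µl medium was pre-loaded into 384-well plates, and breast cancer cell lines in 20 µl suspension were seeded on top and incubated 72 h. After adding 2.5 µl CellTiter-Blue reagent for 2 h at 37 °C, fluorescence was read at 560/590 nm. Plates were normalised to vehicle (100) and a positive kill control (0), with Z'-factor quality control. Each value is normalised viability at a single listed concentration from the series.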
# CAL-51 [2] = experiment: as above
# Procedure, shortened: as §1
# HCC1599 = experiment: drug sensitivity score (DSS), CellTox Green (DSS (AUC-based score)); higher = stronger drug effect (viability inhibition or cytotoxicity); extreme values may be limits of the assay
# Procedure, shortened: (§2)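 A drug sensitivity score was derived from the area under each fitted dose-response curve. Breast cancer cells (20 µl suspension) were seeded onto compound in 384-well plates, using 5 concentrations 10-fold apart over a compound-specific 10,000-fold range, and incubated 72 h. Readouts were CellTox Green fluorescence and then CellTiter-Glo luminescence, with every plate normalised to 0.1 % DMSO and a positive kill control.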
# MDA-MB-231 = experiment: as above
# Procedure, shortened: as §2
# CAL-120 = experiment: as above
# Procedure, shortened: as §2
# MDA-MB-453 [3] = experiment: as above
# Procedure, shortened: as §2
# MDA-MB-468 = experiment: as above
# Procedure, shortened: as §2
# Hs578T = experiment: as above
# Procedure, shortened: as §2
# CAL-85-1 [4] = experiment: as above
# Procedure, shortened: as §2
# HCC1937 = experiment: as above
# Procedure, shortened: as §2
# MDA-MB-436 = experiment: as above
# Procedure, shortened: as §2
# BT-549 = experiment: as above
# Procedure, shortened: as §2
# HCC1143 = experiment: as above
# Procedure, shortened: as §2
# BT-474 [5] = experiment: as above
# Procedure, shortened: as §2
# HDQ-P1 [6] = experiment: as above
# Procedure, shortened: as §2
# CAL-51 [7] = experiment: as above
# Procedure, shortened: as §2
# DU-4475 [8] = experiment: as above
# Procedure, shortened: as §2
# MFM-223 = experiment: as above
# Procedure, shortened: as §2
# CAL-148 [9] = experiment: as above
# Procedure, shortened: as §2
# MCF-10A = experiment: as above
# Procedure, shortened: as §2
# MDA-MB-453 [10] = experiment: normalised viability (% of control), CellTiter-Blue; higher = more viable cells (about 100 = DMSO control)
# Experimental: (§3)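 DSRT, CellTiter-Blue viability, 72 h incubation. Signal is normalised to DMSO and benzethonium chloride controls. Value is the normalised response at dose 7.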
# CAL-85-1 [11] = experiment: as above
# Experimental: as §3
# HDQ-P1 [12] = experiment: as above
# Experimental: as §3
# CAL-51 [13] = experiment: as above
# Experimental: as §3
# DU-4475 [14] = experiment: as above
# Experimental: as §3
# CAL-148 [15] = experiment: as above
# Experimental: as §3
SMILES,normalised viability (BT-474 [1]; 1 nM) [%],normalised viability (CAL-51 [2]; 1 nM) [%],drug sensitivity score (HCC1599),drug sensitivity score (MDA-MB-231),drug sensitivity score (CAL-120),drug sensitivity score (MDA-MB-453 [3]),drug sensitivity score (MDA-MB-468),drug sensitivity score (Hs578T),drug sensitivity score (CAL-85-1 [4]),drug sensitivity score (HCC1937),drug sensitivity score (MDA-MB-436),drug sensitivity score (BT-549),drug sensitivity score (HCC1143),drug sensitivity score (BT-474 [5]),drug sensitivity score (HDQ-P1 [6]),drug sensitivity score (CAL-51 [7]),drug sensitivity score (DU-4475 [8]),drug sensitivity score (MFM-223),drug sensitivity score (CAL-148 [9]),drug sensitivity score (MCF-10A),normalised viability (MDA-MB-453 [10]; 1000 nM) [%],normalised viability (CAL-85-1 [11]; 1000 nM) [%],normalised viability (HDQ-P1 [12]; 1000 nM) [%],normalised viability (CAL-51 [13]; 1000 nM) [%],normalised viability (DU-4475 [14]; 1000 nM) [%],normalised viability (CAL-148 [15]; 1000 nM) [%],normalised viability (BT-474 [1]; 0.1 nM) [%],normalised viability (CAL-51 [2]; 0.1 nM) [%],normalised viability (MDA-MB-453 [10]; 100 nM) [%],normalised viability (CAL-85-1 [11]; 100 nM) [%],normalised viability (HDQ-P1 [12]; 100 nM) [%],normalised viability (CAL-51 [13]; 100 nM) [%],normalised viability (DU-4475 [14]; 100 nM) [%],normalised viability (CAL-148 [15]; 100 nM) [%]
C=CC(=O)Nc1cc2c(Nc3ccc(F)c(Cl)c3)ncnc2cc1OCCCN1CCOCC1 [Canertinib],97.5,109,0,3.46,2.34,0,5.52,6.15,8.99,0,0,0.986,0,3.65,3.34,5.83,0,2.12,0,8.86,33.8,49.5,55.4,101,114,68.6,–,–,–,–,–,–,–,–
CCCS(=O)(=O)Nc1ccc(F)c(C(=O)c2c[nH]c3ncc(-c4ccc(Cl)cc4)cc23)c1F [Vemurafenib],99.8,94.4,0,0.329,0,0,0,0,0,0,0,0,0,0,0,8.51,1.82,0,0,2.59,87.2,83.8,90.5,93.2,25.6,93.9,–,–,–,–,–,–,–,–
O=C(O)C1(C(=O)O)CCC1.[NH2-].[NH2-].[Pt+2] [Carboplatin],109,99.2,0,0,0,0,0,0,0,0,0,1.73,0,0,0,0,0,0,0,0,99.3,81.5,97.1,99.9,97.3,103,–,–,–,–,–,–,–,–
Oc1ncc(N(CCCl)CCCl)c(O)n1 [Uracil mustard],86.6,90.7,0,0,0,0,0,0,0,0,0,0,0,0,0,0,0,0,0,0,101,93.8,117,89.6,96.2,111,–,–,–,–,–,–,–,–
COc1cc2c(Oc3ccc4[nH]c(C)cc4c3F)ncnc2cc1OCCCN1CCCC1 [Cediranib],–,–,0,0,0,0,0,0,1.23,0,0,0,0,0,0,0,0,0,0,0,–,–,–,–,–,–,87.8,91.3,92,95.6,95.9,81.6,81.3,108
N#Cc1ccc(C(c2ccc(C#N)cc2)n2cncn2)cc1 [Letrozole],73.4,108,0,0,0,0,4.02,0.858,0,0,0,0,0,0,0,0,0,0,0,0,96.5,84.8,83.8,106,87.2,86,–,–,–,–,–,–,–,–
Nc1nc2[nH]cc(CCc3ccc(C(=O)N[C@@H](CCC(=O)O)C(=O)O)cc3)c2c(=O)[nH]1 [Pemetrexed],106,109,0,2.43,0,0,1.29,0.581,0,0,0,0,0,0,0,0,0,0,0,0.385,104,72.3,94.8,102,93.9,115,–,–,–,–,–,–,–,–
Nc1ccccc1NC(=O)c1ccc(CNC(=O)OCc2cccnc2)cc1 [Entinostat],109,110,0,1.91,0,0,11.1,0,4.07,1.35,4.39,0,0,0,0,7.91,0,1.09,1.86,0,89.1,85.4,111,105,121,78.8,–,–,–,–,–,–,–,–
CC1=C(/C=C/C(C)=C/C=C/C(C)=C/C(=O)O)C(C)(C)CCC1 [Tretinoin],91.1,93.5,0,3.64,0,0,0,7.23,1.14,0,0,0,0,0.87,0,0,0,0,0,1.81,117,82.2,109,93.2,102,81.2,–,–,–,–,–,–,–,–
CC[C@@H]1C(=O)N(C)c2cnc(Nc3ccc(C(=O)NC4CCN(C)CC4)cc3OC)nc2N1C1CCCC1 [BI 2536],–,–,0,9.92,1.97,0,0,4.87,10.3,0,0,0,0,0,0,16.7,0,6.01,0,10.3,–,–,–,–,–,–,101,89.5,29.9,59.4,57.7,12.1,22.3,28.3
